Results reported in ChEMBL document CHEMBL5034001 (J Med Chem, 2021).
pIC50: −log10 of the molar value. Active and inactive are the calls of the source. No cut-off for these calls is given here.

Experiments:
[1] = system: ALK tyrosine kinase receptor (Homo sapiens), Q9UM73 [L1196M]; test: Binding affinity to wild-type human partial length ALK L1196M mutant (I1088 to E1409 residues) expressed in mammalian expression system assessed as residual binding level at 100 nM by Kinomescan method relative to control
MDA-MB-231 = test: Down regulation of C-myc protein expression in human MDA-MB-231 cells at 1 to 500 nM after 48 hrs by Western blot analysis; type: functional, cell-based; settings: dose 1-500 nM
[2] = target: Serine/threonine-protein kinase Chk2 (Homo sapiens) (UniProt O96017); test: Binding affinity to wild-type human partial length CHEK2 (S253 to E574 residues) expressed in bacterial expression system assessed as residual binding level at 100 nM by Kinomescan method relative to control
[3] = Metabolic stability in human liver microsomes preincubated for 10 mins followed by NADPH regenerating system addition and measured after 10 mins by LC-MS/MS analysis; type: ADME, Microsome; settings: time 20 min, read-out: Stability
[4] = Metabolic stability in CD-1 mouse liver microsomes preincubated for 10 mins followed by NADPH regenerating system addition and measured after 10 mins by LC-MS/MS analysis; type: ADME, Microsome; settings: time 20 min, read-out: Stability
SR [5] = test: Antiproliferative activity against human SR cells assessed as inhibition of cell growth incubated for 72 hrs by CCK8 assay; type: functional, cell-based
Calu-1 [6] = test: Inhibition of cell migration in human Calu-1 cells at 100 nM after 12 to 24 hrs by wound healing assay; type: functional, cell-based; settings: time lower […], time upper 24.0 hrs
SR [7] = test: Antiproliferative activity against human SR cells assessed as inhibition of cell growth at 10 nM preincubated for 5 days followed by compound washout and measured on day 7 and 9 by CCK8 assay; type: functional, cell-based; settings: time 5.0 day
[8] = target: T1, ALK tyrosine kinase receptor (Homo sapiens, UniProt Q9UM73); test: Binding affinity to ALK (unknown origin)
Target sequence in this assay (Q9UM73 whole entry, the tested form may be a part): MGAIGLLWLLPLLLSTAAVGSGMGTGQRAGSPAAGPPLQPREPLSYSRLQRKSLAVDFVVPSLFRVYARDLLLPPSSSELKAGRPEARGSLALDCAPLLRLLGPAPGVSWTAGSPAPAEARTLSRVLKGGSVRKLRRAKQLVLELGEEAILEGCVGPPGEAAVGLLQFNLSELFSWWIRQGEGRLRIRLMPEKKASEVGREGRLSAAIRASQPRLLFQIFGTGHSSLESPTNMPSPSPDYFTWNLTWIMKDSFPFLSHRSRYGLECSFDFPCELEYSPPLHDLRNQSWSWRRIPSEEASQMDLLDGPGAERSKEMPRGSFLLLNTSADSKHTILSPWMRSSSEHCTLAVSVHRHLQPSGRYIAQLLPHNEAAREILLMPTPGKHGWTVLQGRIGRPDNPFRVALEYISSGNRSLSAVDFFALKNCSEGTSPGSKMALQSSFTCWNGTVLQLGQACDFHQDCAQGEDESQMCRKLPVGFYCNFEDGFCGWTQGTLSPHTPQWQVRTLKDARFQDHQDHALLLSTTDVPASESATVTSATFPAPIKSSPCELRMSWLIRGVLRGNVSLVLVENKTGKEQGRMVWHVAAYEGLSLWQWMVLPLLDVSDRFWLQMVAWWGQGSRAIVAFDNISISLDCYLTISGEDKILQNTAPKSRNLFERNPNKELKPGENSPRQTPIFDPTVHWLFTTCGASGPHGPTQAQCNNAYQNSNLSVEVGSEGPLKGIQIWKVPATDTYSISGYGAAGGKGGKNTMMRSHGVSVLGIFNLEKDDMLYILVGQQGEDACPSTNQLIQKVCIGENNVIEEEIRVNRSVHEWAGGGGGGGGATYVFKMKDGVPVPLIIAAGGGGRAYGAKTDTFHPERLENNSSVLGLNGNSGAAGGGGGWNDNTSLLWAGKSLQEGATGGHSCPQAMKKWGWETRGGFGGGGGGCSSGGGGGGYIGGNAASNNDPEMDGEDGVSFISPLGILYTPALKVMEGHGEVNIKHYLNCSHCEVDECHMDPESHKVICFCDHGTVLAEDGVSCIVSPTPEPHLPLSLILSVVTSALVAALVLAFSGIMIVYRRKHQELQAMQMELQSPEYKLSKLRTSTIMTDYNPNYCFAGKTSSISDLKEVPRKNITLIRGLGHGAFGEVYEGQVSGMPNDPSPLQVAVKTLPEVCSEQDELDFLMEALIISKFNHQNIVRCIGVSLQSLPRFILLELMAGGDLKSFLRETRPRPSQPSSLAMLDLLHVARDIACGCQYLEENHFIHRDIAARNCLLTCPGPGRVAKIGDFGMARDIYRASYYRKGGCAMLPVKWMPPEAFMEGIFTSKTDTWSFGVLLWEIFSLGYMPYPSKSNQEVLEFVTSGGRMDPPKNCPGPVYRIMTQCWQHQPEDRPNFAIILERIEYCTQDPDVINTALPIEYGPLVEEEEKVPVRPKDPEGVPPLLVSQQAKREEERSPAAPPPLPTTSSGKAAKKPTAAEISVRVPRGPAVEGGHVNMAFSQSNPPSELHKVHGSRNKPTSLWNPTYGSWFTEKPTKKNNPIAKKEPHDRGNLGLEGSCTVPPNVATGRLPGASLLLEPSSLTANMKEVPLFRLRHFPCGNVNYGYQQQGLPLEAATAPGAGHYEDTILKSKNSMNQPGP

[9] = system: Receptor-type tyrosine-protein kinase FLT3 (Homo sapiens), P36888 [N841I]; test: Binding affinity to human partial length FLT3 N841I mutant (V592 to Y969 residues) expressed in bacterial expression system assessed as residual binding level at 100 nM by Kinomescan method relative to control
[10] = target: T1, ALK tyrosine kinase receptor; test: Binding affinity to wild-type human partial length ALK (I1088 to E1409 residues) expressed in mammalian expression system assessed as residual binding level at 100 nM by Kinomescan method relative to control
Target sequence in this assay (Q9UM73 19-1620 limits assumed): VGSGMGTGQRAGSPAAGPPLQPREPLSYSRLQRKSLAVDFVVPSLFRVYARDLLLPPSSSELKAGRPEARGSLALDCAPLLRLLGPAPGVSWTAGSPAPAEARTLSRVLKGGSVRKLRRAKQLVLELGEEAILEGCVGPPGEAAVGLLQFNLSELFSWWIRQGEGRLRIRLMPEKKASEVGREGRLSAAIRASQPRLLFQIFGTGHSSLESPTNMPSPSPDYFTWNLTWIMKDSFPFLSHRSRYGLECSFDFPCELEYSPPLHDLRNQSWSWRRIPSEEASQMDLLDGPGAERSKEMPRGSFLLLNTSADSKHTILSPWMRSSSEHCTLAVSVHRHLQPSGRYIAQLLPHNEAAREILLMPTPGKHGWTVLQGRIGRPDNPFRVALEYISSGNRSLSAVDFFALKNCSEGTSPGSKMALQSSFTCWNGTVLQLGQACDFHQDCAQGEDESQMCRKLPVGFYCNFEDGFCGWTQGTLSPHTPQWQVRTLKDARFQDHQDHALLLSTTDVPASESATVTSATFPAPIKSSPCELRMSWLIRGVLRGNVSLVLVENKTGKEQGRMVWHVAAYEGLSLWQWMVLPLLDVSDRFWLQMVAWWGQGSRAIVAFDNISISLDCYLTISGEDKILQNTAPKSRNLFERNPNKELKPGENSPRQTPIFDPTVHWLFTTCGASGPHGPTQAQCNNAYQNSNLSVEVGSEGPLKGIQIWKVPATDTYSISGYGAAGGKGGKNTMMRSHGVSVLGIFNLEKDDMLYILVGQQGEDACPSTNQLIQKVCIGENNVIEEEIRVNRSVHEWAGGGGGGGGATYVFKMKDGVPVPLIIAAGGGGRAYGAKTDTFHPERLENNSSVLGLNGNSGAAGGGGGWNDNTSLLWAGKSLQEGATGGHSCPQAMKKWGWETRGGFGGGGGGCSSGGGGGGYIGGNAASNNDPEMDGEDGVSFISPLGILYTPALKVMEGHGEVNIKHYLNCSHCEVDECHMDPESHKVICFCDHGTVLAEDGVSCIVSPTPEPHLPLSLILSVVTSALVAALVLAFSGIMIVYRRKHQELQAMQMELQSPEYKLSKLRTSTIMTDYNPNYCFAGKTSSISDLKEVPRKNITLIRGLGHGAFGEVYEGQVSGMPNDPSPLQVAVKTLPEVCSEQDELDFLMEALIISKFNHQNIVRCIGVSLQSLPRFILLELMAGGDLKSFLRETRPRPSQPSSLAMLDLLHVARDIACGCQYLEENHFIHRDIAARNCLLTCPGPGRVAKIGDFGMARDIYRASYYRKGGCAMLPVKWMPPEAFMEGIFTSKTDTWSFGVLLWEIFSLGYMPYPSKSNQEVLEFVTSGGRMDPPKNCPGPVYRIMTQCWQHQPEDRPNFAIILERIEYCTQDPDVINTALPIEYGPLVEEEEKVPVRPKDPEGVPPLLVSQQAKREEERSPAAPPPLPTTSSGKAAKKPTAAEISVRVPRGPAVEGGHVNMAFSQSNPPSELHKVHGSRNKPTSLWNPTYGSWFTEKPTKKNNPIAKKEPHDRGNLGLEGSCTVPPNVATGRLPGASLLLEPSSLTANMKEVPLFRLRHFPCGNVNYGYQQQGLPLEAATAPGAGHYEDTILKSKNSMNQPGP

[11] = target: Tyrosine-protein kinase JAK3 (Homo sapiens) (UniProt P52333); test: Binding affinity to wild-type human partial length JAK3 JH1 catalytic domain (I781 to S1124 residues) expressed in mammalian expression system assessed as residual binding level at 100 nM by Kinomescan method relative to control
[12] = target: Focal adhesion kinase 1 (Homo sapiens) (UniProt Q05397); test: Induction of FAK degradation in human MDA-MB-231 cells at 10 nM treated for 16 hrs followed by compound washout and measured after 48 hrs by Western blot analysis; type: cell-based
[13] = Metabolic stability in Sprague-Dawley rat liver microsomes preincubated for 10 mins followed by NADPH regenerating system addition and measured after 10 mins by LC-MS/MS analysis; type: ADME, Microsome; settings: time 20 min, read-out: Stability
[14] = target: NUAK family SNF1-like kinase 2 (Homo sapiens) (UniProt Q9H093); test: Binding affinity to wild-type human partial length SNARK (P22 to A333 residues) expressed in mammalian expression system assessed as residual binding level at 100 nM by Kinomescan method relative to control
Chain of NUAK family SNF1-like kinase 2 (Homo sapiens) (Q9H093 whole entry, the tested form may be a part): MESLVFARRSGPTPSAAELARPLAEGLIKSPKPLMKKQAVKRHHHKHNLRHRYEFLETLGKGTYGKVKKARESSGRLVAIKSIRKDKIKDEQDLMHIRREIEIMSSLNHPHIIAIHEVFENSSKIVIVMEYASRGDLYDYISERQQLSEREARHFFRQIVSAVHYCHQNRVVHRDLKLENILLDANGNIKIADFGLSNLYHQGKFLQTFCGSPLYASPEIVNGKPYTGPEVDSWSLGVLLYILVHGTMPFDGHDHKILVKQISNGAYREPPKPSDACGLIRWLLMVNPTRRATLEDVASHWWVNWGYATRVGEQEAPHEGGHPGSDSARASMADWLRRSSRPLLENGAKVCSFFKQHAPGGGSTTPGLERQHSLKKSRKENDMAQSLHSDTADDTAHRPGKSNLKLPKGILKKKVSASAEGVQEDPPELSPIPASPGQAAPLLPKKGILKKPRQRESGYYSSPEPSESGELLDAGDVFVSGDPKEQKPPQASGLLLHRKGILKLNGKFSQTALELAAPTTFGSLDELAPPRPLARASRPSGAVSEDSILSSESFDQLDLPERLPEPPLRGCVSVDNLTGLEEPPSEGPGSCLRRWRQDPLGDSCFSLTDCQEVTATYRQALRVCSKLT

[15] = target: Serine/threonine-protein kinase RIO1 (Homo sapiens) (UniProt Q9BRS2); test: Binding affinity to wild-type human full length RIOK1 (M1 to K568 residues) expressed in bacterial expression system assessed as residual binding level at 100 nM by Kinomescan method relative to control
Chain of Serine/threonine-protein kinase RIO1 (Homo sapiens) (Q9BRS2 whole entry, the tested form may be a part): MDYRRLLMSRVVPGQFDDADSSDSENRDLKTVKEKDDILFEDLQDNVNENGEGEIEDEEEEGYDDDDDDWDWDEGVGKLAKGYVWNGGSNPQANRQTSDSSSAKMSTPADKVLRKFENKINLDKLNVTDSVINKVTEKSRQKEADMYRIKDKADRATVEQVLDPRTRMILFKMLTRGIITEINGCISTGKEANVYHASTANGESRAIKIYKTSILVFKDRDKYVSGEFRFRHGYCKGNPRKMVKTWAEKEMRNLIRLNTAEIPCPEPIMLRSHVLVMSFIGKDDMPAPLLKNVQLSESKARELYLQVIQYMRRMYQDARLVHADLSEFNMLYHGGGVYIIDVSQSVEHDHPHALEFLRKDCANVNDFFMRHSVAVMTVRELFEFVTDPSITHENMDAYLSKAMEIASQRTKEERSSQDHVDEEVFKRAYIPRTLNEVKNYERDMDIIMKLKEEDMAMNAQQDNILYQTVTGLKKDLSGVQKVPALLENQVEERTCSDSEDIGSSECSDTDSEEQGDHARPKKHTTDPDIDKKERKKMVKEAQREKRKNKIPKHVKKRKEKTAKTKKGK

[16] = target: Signal transducer and activator of transcription 3 (Homo sapiens) (UniProt P40763); test: Inhibition of STAT3 downstream signalling in human NCI-H2228 cells assessed as reduction in pSTAT3 level at 1 to 1000 nM by Western blot analysis; type: cell-based; settings: dose 1-1000 nM
[17] = target: Cyclin-G-associated kinase (Homo sapiens) (UniProt O14976); test: Binding affinity to wild-type human partial length GAK (G13 to Y338 residues) expressed in bacterial expression system assessed as residual binding level at 100 nM by Kinomescan method relative to control
[18] = target: Serine/threonine-protein kinase SBK1 (Homo sapiens) (UniProt Q52WX2); test: Binding affinity to wild-type human partial length SBK1 (P23 to P348 residues) expressed in mammalian expression system assessed as residual binding level at 100 nM by Kinomescan method relative to control
Chain of Serine/threonine-protein kinase SBK1 (Homo sapiens) (Q52WX2 whole entry, the tested form may be a part): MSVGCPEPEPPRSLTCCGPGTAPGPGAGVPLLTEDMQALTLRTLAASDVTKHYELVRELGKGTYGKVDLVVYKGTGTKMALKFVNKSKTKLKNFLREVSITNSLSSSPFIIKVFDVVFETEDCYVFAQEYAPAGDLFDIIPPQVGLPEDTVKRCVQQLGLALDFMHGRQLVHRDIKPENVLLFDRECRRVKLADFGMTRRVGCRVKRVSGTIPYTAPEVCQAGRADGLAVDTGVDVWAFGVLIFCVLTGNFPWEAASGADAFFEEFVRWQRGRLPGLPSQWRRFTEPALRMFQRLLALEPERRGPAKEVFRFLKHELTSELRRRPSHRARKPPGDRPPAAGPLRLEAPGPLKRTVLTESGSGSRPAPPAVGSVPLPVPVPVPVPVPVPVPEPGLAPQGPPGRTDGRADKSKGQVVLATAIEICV

[19] = system: ALK tyrosine kinase receptor (Homo sapiens), Q9UM73 [G1202R]; test: Induction of […] G1202R mutant degradation in human […] at 100 nM by Western blot analysis; type: cell-based
[20] = target: Tyrosine-protein kinase Fer (Homo sapiens) (UniProt P16591); test: Binding affinity to wild-type human partial length FER (S542 to T822 residues) expressed in bacterial expression system assessed as residual binding level at 100 nM by Kinomescan method relative to control
Calu-1 [21] = test: Down regulation of FAK in human Calu-1 cells at 1 to 1000 nM after 16 hrs by Western blot analysis; type: functional, cell-based; settings: dose 1-1000 nM
Calu-1 [22] = test: Inhibition of cell invasion in human Calu-1-GFP cells at 100 nM after 24 hrs by transwell invasion assay; type: functional, cell-based
[23] = system: Receptor-type tyrosine-protein kinase FLT3 (Homo sapiens), P36888 [K663Q]; test: Binding affinity to human partial length FLT3 K663Q mutant (V592 to Y969 residues) expressed in bacterial expression system assessed as residual binding level at 100 nM by Kinomescan method relative to control
[24] = target: T1, ALK tyrosine kinase receptor; test: Inhibition of ALK downstream signalling in human SR cells assessed as reduction in ratio of pALK at 0.1 to 50 nM by Western blot analysis; type: cell-based; settings: dose 0.1-50 nM
Target sequence in this assay (Q9UM73 19-1620 limits assumed): as the sequence (Q9UM73 19-1620 limits assumed) above

[25] = target: Serine/threonine-protein kinase 33 (Homo sapiens) (UniProt Q9BYT3); test: Binding affinity to wild-type human full length STK33 (M1 to L514 residues) expressed in bacterial expression system assessed as residual binding level at 100 nM by Kinomescan method relative to control
[26] = target: Protein-tyrosine kinase 2-beta (Homo sapiens) (UniProt Q14289); test: Binding affinity to wild-type human full length PYK2 (M1 to E967 residues) expressed in bacterial expression system assessed as residual binding level at 100 nM by Kinomescan method relative to control
[27] = target: Non-receptor tyrosine-protein kinase TNK1 (Homo sapiens) (UniProt Q13470); test: Binding affinity to wild-type human full length TNK1 (M1 to P661 residues) expressed in bacterial expression system assessed as residual binding level at 100 nM by Kinomescan method relative to control
[28] = target: Activated CDC42 kinase 1 (Homo sapiens) (UniProt Q07912); test: Binding affinity to wild-type human partial length TNK2 (S159 to D474 residues) expressed in bacterial expression system assessed as residual binding level at 100 nM by Kinomescan method relative to control

SMILES: COc1cc(N2CCC(N3CCN(C(=O)CNc4cccc5c4C(=O)N(C4CCC(=O)NC4=O)C5=O)CC3)CC2)ccc1Nc1ncc(Cl)c(Nc2ccccc2P(C)(C)=O)n1 (centres undefined)
- Activity [1]: 6.5%
- Activity (MDA-MB-231): Active
- Activity [2]: 0%
- microsomal CLint [3]: < 9.6 µL/min/mg
- microsomal CLint [4]: 16.7 µL/min/mg
- pIC50 (SR [5]): 8.70
- inhibition (Calu-1 [6]): Active
- Activity (SR [7]): Active
- pIC50 [8]: 8.60
- Activity [9]: 4%
- Activity [10]: 5.3%
- Activity [11]: 1%
- Activity [12]: inactive
- microsomal CLint [13]: < 9.6 µL/min/mg
- Activity [14]: 8.3%
- Activity [15]: 1.6%
- inhibition [16]: inactive
- Activity [17]: 1.4%
- Activity [18]: 3.9%
- Activity [19]: Active
- Activity [20]: 4.1%
- Activity (Calu-1 [21]): Active
- inhibition (Calu-1 [22]): Active
- Activity [23]: 4.3%
- Ratio [24]: 0.18
- Activity [25]: 2.3%
- Activity [26]: 3.5%
- Activity [27]: 3.8%
- Activity [28]: 2%
